Converted amounts (≈) assume the structure as drawn.

The first data set relates to MCF7. Nature of the data set: Cytotoxicity against human MCF7 cells. In kind it is functional, cell-based.
Conditions: not given
One may read the IC50 as the point on the concentration scale where inhibition reaches its midpoint. A higher IC50 goes with a need for much substance. Regarding `CCCCCCCCCCCCCC[C@H](O)[C@@H]1CC[C@H]([C@H](O)CC[C@H](O)CCCCC[C@@H](O)CC2=C[C@H](C)OC2=O)O1`, the IC50 is 1.05 µg/mL (≈ 1.76 µM).
Still for that read-out and setting: next, `CCCCCCCCCCCC[C@@H]1OCO[C@H](CCC[C@H](O)CCCCC[C@@H](O)CC2=C[C@H](C)OC2=O)[C@@H]2CC[C@@H]1O2`: 2.6 µg/mL (≈ 4.37 µM).
On the same count and under the same terms, as for `CCCCCCCCCCCC[C@H](O)[C@@H]1CC[C@H]([C@H](O)CCCCC(=O)CCCCC[C@@H](O)CC2=C[C@H](C)OC2=O)O1`, the figure is 0.29 µg/mL (≈ 0.487 µM); as for `CCCCCCCCCCCC[C@H](O)[C@@H]1CC[C@H]([C@H](O)CCCC[C@H](O)CCCCC[C@@H](O)CC2=C[C@H](C)OC2=O)O1`, 1.18 µg/mL (≈ 1.98 µM).
The same measure, in the same setting: as for `CCCCCCCCCCCCCC[C@H](O)[C@@H]1CC[C@H]([C@H]2CC[C@@H](CCCCC[C@@H](O)CC3=C[C@H](C)OC3=O)OCO2)O1`, the figure is 0.52 µg/mL (≈ 0.854 µM); as for `CCCCCCCCCCCC[C@@H](O)[C@H]1CC[C@H]([C@H]2CC[C@H](CCCCCCC[C@@H](O)CC3=C[C@H](C)OC3=O)OCO2)O1` [ARIANACIN FORMAL], 8.5 µg/mL (≈ 14 µM); as for `CCCCCCCCCCCC[C@@H](O)[C@H]1CC[C@H]([C@H](O)CC[C@@H](O)CCCCCCC[C@@H](O)CC2=C[C@H](C)OC2=O)O1` [ARIANACIN], 0.4 µg/mL (≈ 0.67 µM).
Consider `CCCCCCCCCCCCCC[C@@H](O)[C@H]1CC[C@H]([C@H]2CC[C@@H](CCCCC[C@@H](O)CC3=C[C@H](C)OC3=O)OCO2)O1` [GONIOTHALAMICIN FORMAL], for which half-maximal inhibition (IC50) was put at 1.03 µg/mL (≈ 1.69 µM).
Same read-out and setting: as for `CCCCCCCCCCCCCC[C@@H](O)[C@H]1CC[C@H]([C@H](O)CC[C@H](O)CCCCC[C@@H](O)CC2=C[C@H](C)OC2=O)O1` [GONIOTHALAMICIN], the figure is 0.057 µg/mL (≈ 0.0955 µM); as for `CCCCCCCCCCCC[C@@H](O)[C@H]1CC[C@H]([C@H]2CC[C@@H](CCCCCCC[C@@H](O)CC3=C[C@H](C)OC3=O)OCO2)O1` [JAVORICIN FORMAL], 2.9 µg/mL (≈ 4.76 µM); as for `CCCCCCCCCCCC[C@@H](O)[C@H]1CC[C@H]([C@H](O)CC[C@H](O)CCCCCCC[C@@H](O)CC2=C[C@H](C)OC2=O)O1` [JAVORICIN], 0.23 µg/mL (≈ 0.385 µM).

The next data set has as its system Agrobacterium tumefaciens. Nature of the data set: Inhibition of growth of crown gall tumors in Agrobacterium tumefaciens with tumor-inducing plasmid on potato disk. The class given is functional.
Conditions: not given
In the case of `CCCCCCCCCCCCCC[C@H](O)[C@@H]1CC[C@H]([C@H](O)CC[C@H](O)CCCCC[C@@H](O)CC2=C[C@H](C)OC2=O)O1`, the “inhibition (INH)” value was 47%.
Same read-out and setting: as for `CCCCCCCCCCCC[C@@H]1OCO[C@H](CCC[C@H](O)CCCCC[C@@H](O)CC2=C[C@H](C)OC2=O)[C@@H]2CC[C@@H]1O2`, the figure is 22%.
The same measure, in the same setting: next, `CCCCCCCCCCCC[C@H](O)[C@@H]1CC[C@H]([C@H](O)CCCCC(=O)CCCCC[C@@H](O)CC2=C[C@H](C)OC2=O)O1`: 32%; `CCCCCCCCCCCC[C@H](O)[C@@H]1CC[C@H]([C@H](O)CCCC[C@H](O)CCCCC[C@@H](O)CC2=C[C@H](C)OC2=O)O1`: 28%; `CCCCCCCCCCCCCC[C@H](O)[C@@H]1CC[C@H]([C@H]2CC[C@@H](CCCCC[C@@H](O)CC3=C[C@H](C)OC3=O)OCO2)O1`: 21%.
Still for that read-out and setting: as for `CCCCCCCCCCCC[C@@H](O)[C@H]1CC[C@H]([C@H]2CC[C@H](CCCCCCC[C@@H](O)CC3=C[C@H](C)OC3=O)OCO2)O1` [ARIANACIN FORMAL], the figure is 28%; as for `CCCCCCCCCCCC[C@@H](O)[C@H]1CC[C@H]([C@H](O)CC[C@@H](O)CCCCCCC[C@@H](O)CC2=C[C@H](C)OC2=O)O1` [ARIANACIN], 26%.
As to `CCCCCCCCCCCC[C@@H](O)[C@H]1CC[C@H]([C@H]2CC[C@@H](CCCCCCC[C@@H](O)CC3=C[C@H](C)OC3=O)OCO2)O1` [JAVORICIN FORMAL], the “inhibition (INH)” value is 31%.
Same read-out and setting: next, `CCCCCCCCCCCC[C@@H](O)[C@H]1CC[C@H]([C@H](O)CC[C@H](O)CCCCCCC[C@@H](O)CC2=C[C@H](C)OC2=O)O1` [JAVORICIN]: 47%.

A further data set deals with HT-29. Nature of the data set: Cytotoxicity against human HT29 cells. In kind it is functional, cell-based.
Conditions: not given
The compound `CCCCCCCCCCCCCC[C@H](O)[C@@H]1CC[C@H]([C@H](O)CC[C@H](O)CCCCC[C@@H](O)CC2=C[C@H](C)OC2=O)O1` returned an IC50 of 0.0053 µg/mL (≈ 0.00888 µM).
On the same count and under the same terms, next, `CCCCCCCCCCCC[C@@H]1OCO[C@H](CCC[C@H](O)CCCCC[C@@H](O)CC2=C[C@H](C)OC2=O)[C@@H]2CC[C@@H]1O2`: 2.1 µg/mL (≈ 3.53 µM); `CCCCCCCCCCCC[C@H](O)[C@@H]1CC[C@H]([C@H](O)CCCCC(=O)CCCCC[C@@H](O)CC2=C[C@H](C)OC2=O)O1`: 0.0009 µg/mL (≈ 0.00151 µM).
Still for that read-out and setting: as for `CCCCCCCCCCCCCC[C@H](O)[C@@H]1CC[C@H]([C@H]2CC[C@@H](CCCCC[C@@H](O)CC3=C[C@H](C)OC3=O)OCO2)O1`, the figure is 2.6 µg/mL (≈ 4.27 µM); as for `CCCCCCCCCCCC[C@@H](O)[C@H]1CC[C@H]([C@H]2CC[C@H](CCCCCCC[C@@H](O)CC3=C[C@H](C)OC3=O)OCO2)O1` [ARIANACIN FORMAL], 1 µg/mL (≈ 1.64 µM); as for `CCCCCCCCCCCC[C@@H](O)[C@H]1CC[C@H]([C@H](O)CC[C@@H](O)CCCCCCC[C@@H](O)CC2=C[C@H](C)OC2=O)O1` [ARIANACIN], 4.4 µg/mL (≈ 7.37 µM).
Still for that read-out and setting: as for `COc1cccc2c1C(=O)c1c(O)c3c(c(O)c1C2=O)C[C@@](O)(C(=O)CO)C[C@@H]3O[C@H]1C[C@H](N)[C@H](O)[C@H](C)O1` [DOXORUBICIN], the figure is 0.00051 µg/mL (≈ 0.000938 µM).
Take `CCCCCCCCCCCCCC[C@@H](O)[C@H]1CC[C@H]([C@H]2CC[C@@H](CCCCC[C@@H](O)CC3=C[C@H](C)OC3=O)OCO2)O1` [GONIOTHALAMICIN FORMAL]: the IC50 amounted to 1.13 µg/mL (≈ 1.86 µM).
Same read-out and setting: as for `CCCCCCCCCCCCCC[C@@H](O)[C@H]1CC[C@H]([C@H](O)CC[C@H](O)CCCCC[C@@H](O)CC2=C[C@H](C)OC2=O)O1` [GONIOTHALAMICIN], the figure is 0.0011 µg/mL (≈ 0.00184 µM).
The same measure, in the same setting: as for `CCCCCCCCCCCC[C@@H](O)[C@H]1CC[C@H]([C@H]2CC[C@@H](CCCCCCC[C@@H](O)CC3=C[C@H](C)OC3=O)OCO2)O1` [JAVORICIN FORMAL], the figure is 5.6 µg/mL (≈ 9.2 µM); as for `CCCCCCCCCCCC[C@@H](O)[C@H]1CC[C@H]([C@H](O)CC[C@H](O)CCCCCCC[C@@H](O)CC2=C[C@H](C)OC2=O)O1` [JAVORICIN], 1.8 µg/mL (≈ 3.02 µM).

Test system in the next data set: not listed separately
The experiment in a line: Toxicity in Artemia salina. The class given is organism-based. The conditions noted are these: in vivo.
For orientation: LC50 means the concentration that kills 50% of the test population. `CCCCCCCCCCCCCC[C@H](O)[C@@H]1CC[C@H]([C@H](O)CC[C@H](O)CCCCC[C@@H](O)CC2=C[C@H](C)OC2=O)O1` came in with an LC50 of 5.2 µg/mL (≈ 8.71 µM).
The same measure, in the same setting: as for `CCCCCCCCCCCC[C@H](O)[C@@H]1CC[C@H]([C@H](O)CCCCC(=O)CCCCC[C@@H](O)CC2=C[C@H](C)OC2=O)O1`, the figure is 1.8 µg/mL (≈ 3.03 µM); as for `CCCCCCCCCCCC[C@H](O)[C@@H]1CC[C@H]([C@H](O)CCCC[C@H](O)CCCCC[C@@H](O)CC2=C[C@H](C)OC2=O)O1`, 2.3 µg/mL (≈ 3.85 µM); as for `CCCCCCCCCCCC[C@@H](O)[C@H]1CC[C@H]([C@H](O)CC[C@@H](O)CCCCCCC[C@@H](O)CC2=C[C@H](C)OC2=O)O1` [ARIANACIN], 7.1 µg/mL (≈ 11.9 µM).
`CCCCCCCCCCCCCC[C@@H](O)[C@H]1CC[C@H]([C@H](O)CC[C@H](O)CCCCC[C@@H](O)CC2=C[C@H](C)OC2=O)O1` [GONIOTHALAMICIN] gave an LC50 of 0.6 µg/mL (≈ 1.01 µM).
Same read-out and setting: as for `CCCCCCCCCCCC[C@@H](O)[C@H]1CC[C@H]([C@H](O)CC[C@H](O)CCCCCCC[C@@H](O)CC2=C[C@H](C)OC2=O)O1` [JAVORICIN], the figure is 4.9 µg/mL (≈ 8.21 µM).

Another data set relates to A549. The experiment in a line: Cytotoxicity against human A549 cells. In kind it is functional, cell-based.
Conditions: not given
`CCCCCCCCCCCCCC[C@H](O)[C@@H]1CC[C@H]([C@H](O)CC[C@H](O)CCCCC[C@@H](O)CC2=C[C@H](C)OC2=O)O1` gave an IC50 of 0.13 µg/mL (≈ 0.218 µM).
Still for that read-out and setting: as for `CCCCCCCCCCCC[C@@H]1OCO[C@H](CCC[C@H](O)CCCCC[C@@H](O)CC2=C[C@H](C)OC2=O)[C@@H]2CC[C@@H]1O2`, the figure is 0.079 µg/mL (≈ 0.133 µM); as for `CCCCCCCCCCCC[C@H](O)[C@@H]1CC[C@H]([C@H](O)CCCCC(=O)CCCCC[C@@H](O)CC2=C[C@H](C)OC2=O)O1`, 0.35 µg/mL (≈ 0.588 µM).
Still for that read-out and setting: next, `CCCCCCCCCCCC[C@H](O)[C@@H]1CC[C@H]([C@H](O)CCCC[C@H](O)CCCCC[C@@H](O)CC2=C[C@H](C)OC2=O)O1`: 0.23 µg/mL (≈ 0.385 µM).
The same measure, in the same setting: as for `CCCCCCCCCCCCCC[C@H](O)[C@@H]1CC[C@H]([C@H]2CC[C@@H](CCCCC[C@@H](O)CC3=C[C@H](C)OC3=O)OCO2)O1`, the figure is 0.53 µg/mL (≈ 0.87 µM); as for `CCCCCCCCCCCC[C@@H](O)[C@H]1CC[C@H]([C@H]2CC[C@H](CCCCCCC[C@@H](O)CC3=C[C@H](C)OC3=O)OCO2)O1` [ARIANACIN FORMAL], 0.02 µg/mL (≈ 0.0328 µM).
Compound `CCCCCCCCCCCC[C@@H](O)[C@H]1CC[C@H]([C@H](O)CC[C@@H](O)CCCCCCC[C@@H](O)CC2=C[C@H](C)OC2=O)O1` [ARIANACIN] gave a 50% inhibitory concentration (IC50) of 0.0047 µg/mL (≈ 0.00787 µM).
Still for that read-out and setting: as for `COc1cccc2c1C(=O)c1c(O)c3c(c(O)c1C2=O)C[C@@](O)(C(=O)CO)C[C@@H]3O[C@H]1C[C@H](N)[C@H](O)[C@H](C)O1` [DOXORUBICIN], the figure is 0.0004 µg/mL (≈ 0.000736 µM); as for `CCCCCCCCCCCCCC[C@@H](O)[C@H]1CC[C@H]([C@H]2CC[C@@H](CCCCC[C@@H](O)CC3=C[C@H](C)OC3=O)OCO2)O1` [GONIOTHALAMICIN FORMAL], 0.025 µg/mL (≈ 0.0411 µM).
Compound `CCCCCCCCCCCCCC[C@@H](O)[C@H]1CC[C@H]([C@H](O)CC[C@H](O)CCCCC[C@@H](O)CC2=C[C@H](C)OC2=O)O1` [GONIOTHALAMICIN] registered an IC50 of 0.008 µg/mL (≈ 0.0134 µM).
Same read-out and setting: next, `CCCCCCCCCCCC[C@@H](O)[C@H]1CC[C@H]([C@H]2CC[C@@H](CCCCCCC[C@@H](O)CC3=C[C@H](C)OC3=O)OCO2)O1` [JAVORICIN FORMAL]: 0.02 µg/mL (≈ 0.0328 µM).
Still for that read-out and setting: as for `CCCCCCCCCCCC[C@@H](O)[C@H]1CC[C@H]([C@H](O)CC[C@H](O)CCCCCCC[C@@H](O)CC2=C[C@H](C)OC2=O)O1` [JAVORICIN], the figure is 0.017 µg/mL (≈ 0.0285 µM).

Source of the values: ChEMBL document CHEMBL1158187, “Five novel mono-tetrahydrofuran ring acetogenins from the seeds of Annona muricata” (J Nat Prod, 1996).
